How the values were obtained:
[1] = target: T1, 3-hydroxy-3-methylglutaryl-coenzyme A reductase (Mus musculus, UniProt Q01237); experiment: In vitro inhibitory activity against isolated enzyme HMG-CoA reductase
T1 sequence (Q01237 whole entry): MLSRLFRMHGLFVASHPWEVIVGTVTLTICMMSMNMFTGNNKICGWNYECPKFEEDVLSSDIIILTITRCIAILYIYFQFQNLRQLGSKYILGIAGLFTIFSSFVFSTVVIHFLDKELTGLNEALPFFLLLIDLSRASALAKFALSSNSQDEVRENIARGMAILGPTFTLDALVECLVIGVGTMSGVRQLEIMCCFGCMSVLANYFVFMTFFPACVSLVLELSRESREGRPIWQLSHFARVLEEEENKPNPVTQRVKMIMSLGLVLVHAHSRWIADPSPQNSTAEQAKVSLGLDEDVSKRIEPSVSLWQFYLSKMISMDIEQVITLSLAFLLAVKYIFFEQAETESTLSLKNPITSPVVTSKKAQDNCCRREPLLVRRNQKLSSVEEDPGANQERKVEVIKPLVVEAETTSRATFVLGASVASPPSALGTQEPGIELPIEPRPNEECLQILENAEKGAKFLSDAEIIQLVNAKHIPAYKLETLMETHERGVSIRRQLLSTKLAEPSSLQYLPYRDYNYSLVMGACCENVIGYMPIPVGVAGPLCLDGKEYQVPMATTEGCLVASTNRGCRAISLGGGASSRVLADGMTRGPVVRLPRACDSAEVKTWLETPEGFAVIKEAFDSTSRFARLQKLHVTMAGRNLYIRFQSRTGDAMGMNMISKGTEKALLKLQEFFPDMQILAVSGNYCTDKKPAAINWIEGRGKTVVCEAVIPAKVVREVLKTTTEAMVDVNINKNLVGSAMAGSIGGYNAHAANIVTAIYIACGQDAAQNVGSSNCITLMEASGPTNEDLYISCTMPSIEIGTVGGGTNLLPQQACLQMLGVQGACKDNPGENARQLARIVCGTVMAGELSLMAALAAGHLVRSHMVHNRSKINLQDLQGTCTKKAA

HepG2 = experiment: Ratio of inhibitory activity against HMG-CoA reductase of HepG2 cells vs hepatocytes; type: cell-based
[2] = target: T2, 3-hydroxy-3-methylglutaryl-coenzyme A reductase (Rattus norvegicus, UniProt P51639); experiment: Compound was evaluated for inhibitory activity against HMG-CoA reductase from rat hepatocyte; type: cell-based
T2 sequence (P51639 whole entry): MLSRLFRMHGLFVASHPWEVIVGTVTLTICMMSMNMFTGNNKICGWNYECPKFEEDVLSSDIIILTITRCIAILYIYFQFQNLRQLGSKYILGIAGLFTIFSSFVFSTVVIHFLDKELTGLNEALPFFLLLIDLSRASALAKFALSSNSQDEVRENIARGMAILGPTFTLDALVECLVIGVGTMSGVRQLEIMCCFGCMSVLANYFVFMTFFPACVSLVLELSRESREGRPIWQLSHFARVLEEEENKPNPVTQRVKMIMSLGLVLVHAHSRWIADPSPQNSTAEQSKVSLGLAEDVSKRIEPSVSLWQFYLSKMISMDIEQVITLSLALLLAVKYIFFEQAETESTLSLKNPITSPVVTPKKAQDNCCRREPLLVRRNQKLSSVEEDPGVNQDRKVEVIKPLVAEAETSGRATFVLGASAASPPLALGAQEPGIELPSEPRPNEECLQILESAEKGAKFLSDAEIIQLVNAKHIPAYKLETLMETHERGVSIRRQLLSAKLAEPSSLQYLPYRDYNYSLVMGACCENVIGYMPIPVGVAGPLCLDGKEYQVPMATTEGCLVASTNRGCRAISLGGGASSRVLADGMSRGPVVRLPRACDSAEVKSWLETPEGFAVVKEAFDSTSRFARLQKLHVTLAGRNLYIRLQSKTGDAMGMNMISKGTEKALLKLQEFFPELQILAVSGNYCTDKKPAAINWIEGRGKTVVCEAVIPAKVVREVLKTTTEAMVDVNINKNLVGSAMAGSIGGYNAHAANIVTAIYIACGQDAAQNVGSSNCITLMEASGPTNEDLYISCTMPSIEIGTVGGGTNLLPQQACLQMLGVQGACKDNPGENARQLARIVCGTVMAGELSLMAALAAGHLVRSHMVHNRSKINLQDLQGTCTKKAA

[3] = target: T3, 3-hydroxy-3-methylglutaryl-coenzyme A reductase (Homo sapiens, UniProt P04035); experiment: Compound was evaluated for inhibitory activity against HMG-CoA reductase in HepG2 cells; type: cell-based
T3 sequence (P04035 whole entry): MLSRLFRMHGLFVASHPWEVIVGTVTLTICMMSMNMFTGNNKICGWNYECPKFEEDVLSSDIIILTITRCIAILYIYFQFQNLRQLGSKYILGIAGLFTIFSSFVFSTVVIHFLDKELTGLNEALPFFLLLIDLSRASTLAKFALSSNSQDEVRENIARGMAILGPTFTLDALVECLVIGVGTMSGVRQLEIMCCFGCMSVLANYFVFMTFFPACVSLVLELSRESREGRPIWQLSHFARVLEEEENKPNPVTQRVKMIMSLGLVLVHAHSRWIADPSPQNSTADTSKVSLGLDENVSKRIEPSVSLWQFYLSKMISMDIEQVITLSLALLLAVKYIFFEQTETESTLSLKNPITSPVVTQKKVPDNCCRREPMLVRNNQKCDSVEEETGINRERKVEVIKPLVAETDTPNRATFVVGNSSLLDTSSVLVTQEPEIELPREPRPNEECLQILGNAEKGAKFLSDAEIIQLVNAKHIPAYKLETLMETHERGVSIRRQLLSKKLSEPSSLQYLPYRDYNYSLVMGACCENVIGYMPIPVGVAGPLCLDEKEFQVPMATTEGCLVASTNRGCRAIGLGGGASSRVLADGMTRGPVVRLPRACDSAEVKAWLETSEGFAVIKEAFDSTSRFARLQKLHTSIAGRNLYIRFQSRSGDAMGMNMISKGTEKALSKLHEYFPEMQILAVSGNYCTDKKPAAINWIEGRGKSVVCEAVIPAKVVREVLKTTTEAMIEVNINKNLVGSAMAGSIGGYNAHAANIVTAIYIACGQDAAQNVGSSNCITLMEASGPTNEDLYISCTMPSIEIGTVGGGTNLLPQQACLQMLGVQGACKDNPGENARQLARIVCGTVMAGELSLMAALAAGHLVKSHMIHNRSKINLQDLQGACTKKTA

[4] = target: T2, 3-hydroxy-3-methylglutaryl-coenzyme A reductase; experiment: Compound was evaluated for inhibitory activity against HMG-CoA reductase in testes cell preparation; type: tissue-based, Testis
[5] = target: T2, 3-hydroxy-3-methylglutaryl-coenzyme A reductase; experiment: Compound was evaluated for inhibitory activity against HMG-CoA reductase in spleen cell preparation; type: tissue-based
[6] = target: T3, 3-hydroxy-3-methylglutaryl-coenzyme A reductase; experiment: Compound was evaluated for inhibitory activity against HMG-CoA reductase in adrenal cell preparation; type: cell-based
Hepatocyte = experiment: Ratio of inhibitory activity of HepG2 to hepatocyte; type: cell-based

| SMILES | IC50 [1] [nM] | Ratio (HepG2) | IC50 [2] [nM] | IC50 [3] [nM] | IC50 [4] [nM] | IC50 [5] [nM] | IC50 [6] [nM] | Ratio (Hepatocyte) |
| --- | --- | --- | --- | --- | --- | --- | --- | --- |
| CC[C@H](C)C(=O)O[C@H]1C[C@@H](C)C=C2C=C[C@H](C)[C@H](CC[C@@H]3C[C@@H](O)CC(=O)O3)[C@H]21 [LOVASTATIN] | 27 |  |  |  |  |  |  |  |
| O=C(O)C[C@H](O)C[C@H](O)/C=C/C(=C(c1ccc(F)cc1)c1ccc(F)cc1)n1cnnn1 | 120 | 86 | 20 | 1720 |  |  |  |  |
| O=C(O)C[C@H](O)C[C@H](O)/C=C/C(=C(c1ccc(F)cc1)c1ccc(F)cc1)n1nnnc1-c1ccccc1 | > 100000 |  |  |  |  |  |  |  |
| Cn1nnnc1C(/C=C/[C@@H](O)C[C@@H](O)CC(=O)O)=C(c1ccc(F)cc1)c1ccc(F)cc1 | 43 | 62 |  | 1340 | 1800 | 3200 | 1600 |  |
| Cc1nnnn1C(/C=C/[C@@H](O)C[C@@H](O)CC(=O)O)=C(c1ccc(F)cc1)c1ccc(F)cc1 | 630 |  | 100 | 1290 |  |  |  | 13 |

Source: ChEMBL document CHEMBL1151030, “Synthesis of tetrazol-1-yl analogs of HMG-COA reductase inhibitor BMS180431 (formerly BMY21950)” (Bioorg Med Chem Lett, 1992)
